According to patent US20240034729A9, “HETEROCYCLIC COMPOUND, INTERMEDIATE, PREPARATION METHOD THEREFOR AND APPLICATION THEREOF” (WUHAN LL SCIENCE AND TECHNOLOGY DEVELOPMENT CO., LTD., priority 2018, published 2024):
Entries after “also recorded” stand apart in the source; their conditions may differ.

Legend:
[1] = phase II clinical trial; cited from earlier work
[2] = system: Male Dunkin Hartley guinea pigs; assay: ATP-citric acid cough model; assay type: in vivo, guinea pig; conditions: for Number of coughs / cough inhibition (in words): compared with the vehicle group
Description: Male Dunkin Hartley guinea pigs (300-400 g) were placed into a whole-body plethysmography box to adapt for 3-5 min, then ATP atomization is carried out for 2 min, and 3 min later, 5 min of citric acid atomization was followed, with all atomization rates being about 300 uL/min. The number of coughs and the cough latency of the animals within 10 min from the start of the citric acid atomization were recorded. During the 10-min observation, coughs of the animals were counted manually, and the coughs were judged according to cough postures of the guinea pigs, such as abdominal twitching, mouth opening, head inclining downward abruptly and the like. The number of coughs during 10 min were recorded, and the cough latency of the guinea pigs was also recorded.
The animals were divided into a vehicle group, a dextromethorphan (63 mg/kg) positive group, an AF-219 (30 mg/kg) positive group and Example 173 compound (3, 10, 30 mg/kg) administration groups, and all the compounds were orally administered. Except that dextromethorphan was administered 40 min before ATP-citric acid exposure, the remaining compounds were administered 2 h before ATP-citric acid exposure.

[3] = molecular target: hP2X2/3 (heterodimeric receptors formed by human purinergic P2X receptors subtype 2 and subtype 3) (Homo sapiens (Human), UniProt P56373+Q9UBL9); assay: FLIPR calcium assay, hP2X2/3 expressed in HEK293 cells (P2X2/3 receptor selectivity); assay type: cell-based
[4] = In vitro cytotoxicity assay, CCK-8 method; assay type: cell-based; conditions: human, HepG2 cells
Summary of the method: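 HepG2 cells at 50,000/well, grown to 80–90% confluence, exposed to compound dilutions or DMSO vehicle for 48 h at 37 °C. Viability by CCK-8 (1.5 h, 37 °C), absorbance at 450 nm; CC50 calculated.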

[5] = In vitro metabolic stability, human liver microsome; assay type: in vitro ADME; conditions: liver microsomes, 1 mg/mL liver microsome protein, 37° C., NA = essentially not metabolized, read-out: T1/2 in human liver microsome
Summary of the method: (§1)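 Compounds incubated with rat or human liver microsomes. At each time point reactions stopped with cold acetonitrile containing internal standards and centrifuged. Supernatants analysed by LC-MS to derive in vitro metabolic half-life.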

[6] = In vitro metabolic stability, rat liver microsome; assay type: in vitro ADME; conditions: liver microsomes, 1 mg/mL liver microsome protein, 37° C., NA = essentially not metabolized, read-out: T1/2 in rat liver microsome
Summary of the method: as §1

[7] = In vitro metabolic stability, guinea pig liver microsome; assay type: in vitro ADME; conditions: liver microsomes, 1 mg/mL liver microsome protein, 37° C., NA = essentially not metabolized, read-out: T1/2 in guinea pig liver microsome
Summary of the method: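 Test compound incubated at 37° C. in microsomes (1 mg/mL protein) with NADPH-regenerating system (1 mM NADP, 6 mM glucose 6-phosphate, 25 U/mL G6PDH, 5 mM MgCl2). Timed aliquots quenched in cold acetonitrile with internal standards; supernatant analysed by LC-MS to derive in vitro half-life.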

[8] = system: Male Dunkin Hartley guinea pigs; assay: Citric acid only cough model; assay type: in vivo, guinea pig; parameters: Mean cough latency: unit not given beside the values; conditions: for Mean number of coughs: 17.5% citric acid
Description: Male Dunkin Hartley guinea pigs (300-350 g) were placed in an animal atomization box, and then the door of the atomization box was closed while the ultrasonic atomizer (Guangdong Yuehua) was turned on. 17.5% citric acid gas was introduced into the atomization box at a maximum atomization rate (about 2 mL/min) for 20 s, and coughs of the animals within 10 min were continuously observed from the time of the start of atomization. During the 10-min observation, coughs of the animals were counted manually, and the number of coughs were judged according to cough postures of the guinea pigs, such as abdominal twitching, mouth opening, and head inclining downward abruptly. The number of coughs during the first 5 min and that during 10 min were recorded, and the cough latency of the guinea pigs, namely the time from the initiation of citric acid induction to the appearance of the first cough, was also recorded.

Male SD rats = assay: Two-bottle dysgeusia test (quinine water vs normal water); assay type: in vivo, rat; conditions: for Quinine/tap water* 100%: Table 9, rats, single intraperitoneal injection
Description: All drinking water bottles were removed out 20 h before the start of the formal experiment, and all the animals were deprived of water until the start of the experiment. In the experiment, all the animals were randomly grouped and then subjected to a single intraperitoneal injection of a test compound or a vehicle before water was resupplied. The administration time was determined according to the Tmax of the test compound. Then the animals were placed in separate cages, and two bottles of drinking water (one bottle of normal drinking water and one bottle of 0.3 mM quinine water) were provided.

[9] = 30 mg/kg oral, 2 h before ATP-citric acid exposure
[10] = before administration (baseline of the group)
[11] = 63 mg/kg oral, 40 min before ATP-citric acid exposure

Sequence of hP2X2/3 (heterodimeric receptors formed by human purinergic P2X receptors subtype 2 and subtype 3) (P56373 whole entry): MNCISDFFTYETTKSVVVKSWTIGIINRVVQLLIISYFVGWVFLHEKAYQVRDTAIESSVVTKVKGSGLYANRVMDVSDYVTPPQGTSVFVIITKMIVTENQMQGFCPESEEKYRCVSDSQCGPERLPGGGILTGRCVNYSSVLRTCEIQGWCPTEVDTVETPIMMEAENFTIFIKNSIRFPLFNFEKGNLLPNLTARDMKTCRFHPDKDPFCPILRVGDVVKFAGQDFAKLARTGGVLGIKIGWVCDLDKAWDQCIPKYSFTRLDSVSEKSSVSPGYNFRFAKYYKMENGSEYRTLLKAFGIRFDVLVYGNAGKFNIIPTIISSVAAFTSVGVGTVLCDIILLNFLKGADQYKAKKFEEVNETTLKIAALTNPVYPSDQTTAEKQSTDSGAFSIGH
Sequence of hP2X2/3 (heterodimeric receptors formed by human purinergic P2X receptors subtype 2 and subtype 3) (Q9UBL9 whole entry): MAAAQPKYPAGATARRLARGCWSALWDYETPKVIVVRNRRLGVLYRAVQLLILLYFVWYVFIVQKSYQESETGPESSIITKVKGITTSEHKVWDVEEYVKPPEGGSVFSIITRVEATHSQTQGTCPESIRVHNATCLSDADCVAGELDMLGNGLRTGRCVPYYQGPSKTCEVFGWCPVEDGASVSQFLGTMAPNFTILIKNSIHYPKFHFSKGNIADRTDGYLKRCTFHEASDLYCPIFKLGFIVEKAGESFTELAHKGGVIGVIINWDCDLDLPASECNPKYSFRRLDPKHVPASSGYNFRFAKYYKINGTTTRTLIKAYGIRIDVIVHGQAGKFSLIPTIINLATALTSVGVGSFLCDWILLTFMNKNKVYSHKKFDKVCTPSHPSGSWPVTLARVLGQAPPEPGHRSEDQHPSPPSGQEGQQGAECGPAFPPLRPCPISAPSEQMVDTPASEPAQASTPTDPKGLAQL

COc1cc(C(C)C)c(Oc2cnc(N)nc2N)cc1S(N)(=O)=O [AF-219, reference compound]
Dysgeusia (in words) [1]: serious dysgeusia
Efficacy for refractory cough (in words) [1]: relatively good efficacy for refractory cough
Cough inhibition ratio vs. vehicle (%) [2, 9]: 45.20%
Number of coughs during 10 min [2, 9]: 11.42

COC(=O)N1CCO[C@@H](Cc2c(-c3c(F)cc(S(N)(=O)=O)cc3F)nc3cc(Cl)ccn23)C1 [Compound 172, methyl (S)-2-((7-chloro-2-(2,6-difluoro-4-sulfamoylphenyl)imidazo[1,2-a]pyridin-3-yl)methyl)morpholine-4-carboxylate]
Folds of selectivity [3]: >85714
CC50 at 48 h [4]: 57.1 µM
half-life [5]: 13.7 h
half-life [6]: 3.72 h
half-life [7]: 6.84 h
Cough inhibition rate Vs Baseline (%) ([8]; 30 mg/kg): 50.6%
Cough inhibition rate Vs Vehicle (%) ([8]; 30 mg/kg): 43.9%
Number of coughs and cough latency (in words) ([8]; 30 mg/kg, compared with the blank vehicle or the condition before administration): can effectively reduce the number of coughs and prolong the cough latency
Mean cough latency ([8]; after administration, 30 mg/kg): 118.89
Mean number of coughs ([8]; after administration, 30 mg/kg): 9.67
Mean cough latency [8, 10]: 87.56
Mean number of coughs [8, 10]: 19.56
Number of coughs during 10 min ([2]; 3 mg/kg oral, 2 h before ATP-citric acid exposure): 14.42
Number of coughs during 10 min ([2]; 10 mg/kg oral, 2 h before ATP-citric acid exposure): 10.17
Number of coughs during 10 min [2, 9]: 9.83
Number of coughs / cough inhibition (in words) [2]: stronger cough inhibition effect than positive compound 2
Number of coughs / cough inhibition (in words) ([2]; listed as compound 172): can significantly reduce the number of coughs; also recorded: inhibition in a dose-dependent manner
Ratio of quinine/water intake of rats (in words) (Male SD rats; 5 mg/kg, 10 mg/kg and 20 mg/kg, compared with the blank vehicle): almost unaffected
Quinine/tap water* 100% (Male SD rats; 5 mg/kg): 7.05%
Quinine/tap water* 100% (Male SD rats; 10 mg/kg): 7.41%
Quinine/tap water* 100% (Male SD rats; 20 mg/kg): 8.66%

COc1ccc2c(c1)[C@]13CCCC[C@@H]1[C@H](C2)N(C)CC3 [Dextromethorphan, dextromethorphan, reference compound]
Cough inhibition ratio vs. vehicle (%) [2, 11]: 61.60%
Number of coughs during 10 min [2, 11]: 8.00
Number of coughs / cough inhibition (in words) [2]: can significantly reduce the number of coughs
